The numbers were not newly measured in patent EP0707853B1, “Muscle relaxant pharmaceutical compositions” (priority 1994, dated 1996), which cites them from elsewhere.

The conditions of this data set: for pI: isoionic point; for pI / pKa: Handbook of Chemistry and Physics, ed. 69, page C 107; for pKa: pKa values for basic groups; for isoionic point (pI): value given in the example text as the pH the solution is brought to.

As for `C[C@H](N)C(=O)O` [alanine], the pI is reported as 6,1 and the pKa was 9,87.
Consider `NCC(=O)O` [glycine], for which the pI is listed as 6,06 and the “isoionic point (pI)” value is on record as 6.1.
`O=C(O)[C@@H]1C[C@@H](O)CN1` [hydroxyproline]: the pI is on record as 5,82 and the pKa is reported as 9,73.
With `CSCC[C@H](N)C(=O)O` [methionine], the pI is 5,91 and the pKa is reported as 10,6.
With `O=C(O)[C@@H]1CCCN1` [proline], the pI was 6,3 and the pKa is 9,87.
`N[C@@H](CO)C(=O)O` [serine]: the pI was 5,68, the pKa is given as 9,15 and the “isoionic point (pI)” value was 5.67.
With `CC(C)[C@H](N)C(=O)O` [valine], the pI is 6,0 and the pKa is on record as 9,72.
